The target in experiment [1] is T1, JAK3 protein (Homo sapiens, UniProt P52333).
T1 construct: purchased Carna Biosciences
T1 sequence (P52333 1-1124): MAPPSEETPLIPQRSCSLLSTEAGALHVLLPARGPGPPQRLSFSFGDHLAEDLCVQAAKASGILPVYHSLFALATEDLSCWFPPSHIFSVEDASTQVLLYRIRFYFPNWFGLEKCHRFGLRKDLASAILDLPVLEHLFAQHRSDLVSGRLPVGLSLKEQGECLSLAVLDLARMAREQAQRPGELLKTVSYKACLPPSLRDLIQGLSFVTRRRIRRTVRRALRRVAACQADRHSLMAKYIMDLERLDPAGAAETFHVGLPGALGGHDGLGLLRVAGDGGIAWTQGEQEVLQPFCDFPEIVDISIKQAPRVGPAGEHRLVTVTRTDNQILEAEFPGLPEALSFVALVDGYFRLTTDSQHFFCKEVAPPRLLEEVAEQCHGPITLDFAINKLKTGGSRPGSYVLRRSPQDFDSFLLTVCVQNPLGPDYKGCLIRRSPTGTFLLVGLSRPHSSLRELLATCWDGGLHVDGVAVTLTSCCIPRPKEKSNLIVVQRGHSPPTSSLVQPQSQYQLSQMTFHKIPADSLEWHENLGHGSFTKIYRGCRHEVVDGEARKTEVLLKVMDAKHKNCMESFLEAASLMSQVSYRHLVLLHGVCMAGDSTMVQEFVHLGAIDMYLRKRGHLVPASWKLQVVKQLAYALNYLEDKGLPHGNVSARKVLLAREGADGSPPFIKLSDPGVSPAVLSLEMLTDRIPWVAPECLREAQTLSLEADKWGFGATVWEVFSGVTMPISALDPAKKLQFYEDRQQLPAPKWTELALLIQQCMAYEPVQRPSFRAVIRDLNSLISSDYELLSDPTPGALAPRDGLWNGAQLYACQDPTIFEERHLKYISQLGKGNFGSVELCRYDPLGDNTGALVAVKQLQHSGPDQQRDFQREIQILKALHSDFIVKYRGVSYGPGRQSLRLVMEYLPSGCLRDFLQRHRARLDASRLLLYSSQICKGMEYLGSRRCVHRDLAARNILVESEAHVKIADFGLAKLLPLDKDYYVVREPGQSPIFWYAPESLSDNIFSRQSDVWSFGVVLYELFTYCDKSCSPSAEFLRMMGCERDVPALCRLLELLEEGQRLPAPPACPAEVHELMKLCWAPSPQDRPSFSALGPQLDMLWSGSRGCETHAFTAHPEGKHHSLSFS
As to the kind of experiment: In vitro JAK3 kinase activity assay (HTRF kinEASE TK). The experiment is classed as biochemical. The following applies: 0.75 μM ATP, 25 minutes, room temperature; read-out: IC50 JAK3 (enzyme activity assay). The method, then: (§1) Recombinant human JAK1 protein was purchased from Thermo Fisher. JAK2 and JAK3 proteins were purchased from Carna Biosciences. HTRF kinEASE TK kit was purchased from Cisbio Bioassays. BioTek microplate reader Synergy Neo 2 was used to read the plate.
(§2) The test compounds were of 4-fold serial dilution, and the final concentration ranged from 10 μM to 0.04 nM in duplicates for each concentration. The concentration of DMSO in the reaction system was 1%.
The reaction included […] JAK 3 protein kinase, 1 μM TK Substrate-biotin peptide substrate, 0.75 μM ATP, 1× enzymatic buffer, 5 mM MgCl2, and 1 mM DTT. The detection plate was White Proxiplate 384-Plus plate (PerkinElmer), and the mixture (10 μl) was reacted at room temperature for 25 minutes.
(§3) Reaction detection: 10 μl of detection reagent was added to the reaction plate containing final concentration of 0.125 μM of SA-XL665 and 5 μl 1×TK-Antibody. The mixture was incubated overnight at room temperature. The plate was read using Synergy Neo 2.
(§4) Data analysis: 665/620 Ratio was converted into inhibition rate (%) through the following formula: inhibition rate (%)=(Ratiomax−Ratiotest)/(Ratiomax−Ratiomin)×100%. Ratiomax is a positive control without detection compound, Ratiomin is a negative control without detection compound and kinase, Ratiotest is the detection value of each concentration of different compounds. 4 parameter curve fitting was performed to measure the IC50 (nM) values. The details are shown in, Table 1.

Experiment [2] has as its target T2, JAK1 (Homo sapiens, UniProt P23458). As to the kind of experiment: In vitro JAK1 kinase activity assay (HTRF kinEASE TK). The experiment is classed as biochemical. Further details: purchased Thermo Fisher. The following applies: 1.1 μM ATP, 60 minutes, room temperature; read-out: IC50 JAK1 (enzyme activity assay). How it is done: as §1, §2
The reaction included 0.5 ng/μl JAK 1 protein kinase, 1 μM TK Substrate-biotin peptide substrate, 1.1 μM ATP, 1× enzymatic buffer, 5 mM MgCl2, 1 mM MnCl2, 1 mM DTT, and 2.5 nM SEB. The detection plate was White Proxiplate 384-Plus plate (PerkinElmer), and the mixture (10 μl) was reacted at room temperature for 60 minutes.
as §3, §4
Background: Time-resolved FRET reads energy transfer from a long-lived donor to a nearby acceptor.

Experiment [3] deals with T3, JAK2 (Homo sapiens, UniProt O60674). The experiment can be described thus: In vitro JAK2 kinase activity assay (HTRF kinEASE TK). The experiment is classed as biochemical. On the set-up: purchased Carna Biosciences. Particulars: 2.7 μM ATP, 25 minutes, room temperature; read-out: IC50 JAK2 (enzyme activity assay). How it is done:
as §1, §2
The reaction included 0.001 ng/μl JAK 2 protein kinase, 1 μM TK Substrate-biotin peptide substrate, 2.7 μM ATP, 1× enzymatic buffer, 5 mM MgCl2, and 1 mM DTT. The detection plate was White Proxiplate 384-Plus plate (PerkinElmer), and the mixture (10 μl) was reacted at room temperature for 25 minutes.
as §3, §4

Experiment [4] has as its target T2, JAK1. As to the kind of experiment: Cellular JAK1 activity assay: IL-6-stimulated STAT3 phosphorylation in TF-1 cells. Particulars: IL-6 (30 ng/mL), pSTAT3, read-out: IC50 Cell JAK1. It is filed as cell-based. Further details: endogenous in cells; host or cells: TF-1 cells (ATCC). The method, then:
(§5) In TF-1 cells, IL-6 stimulation leads to phosphorylation of STAT3 through JAK1, while EPO stimulants phosphorylation of STAT5 via JAK2.
(§6) TF-1 cells were obtained from American Type Culture Collection (ATCC). TF-1 cells were starved overnight (cell density was 100,000 cells/well at plating) in OptiMEM medium without phenol red containing 0.5% fetal bovine serum (FBS), 0.1 mM non-essential amino acids (NEAA), 1 mM sodium pyruvate at 37° C. The compound was serially diluted in DMSO, added to TF-1 cells and incubated at 37° C. for 20 minutes. The final concentration of DMSO was 0.2%. Then, human recombinant cytokine IL-6 (30 ng/mL) or EPO (10 U/mL) was added to the wells containing TF-1 cells. After the cell plate was incubated for 30 minutes, cells were lysed, and the phosphorylation of STAT3 (IL-6) or STAT5 (EPO) in the cell lysate (pSTAT3/total STAT3 Elisa Kit: CST #7300C/CST #7305C; pSTAT5 and total STAT5 Elisa Kit: Abcam #ab205715) was measured. The IC50 value was determined as the concentration of the compound required to inhibit STAT phosphorylation by 50% relative to the measured DMSO control.

The target of experiment [5] is T3, JAK2. As to the kind of experiment: Cellular JAK2 activity assay: EPO-stimulated STAT5 phosphorylation in TF-1 cells. Particulars: EPO (10 U/mL), pSTAT5, read-out: IC50 Cell JAK2. The experiment is classed as cell-based. Further details: endogenous in cells; host or cells: TF-1 cells (ATCC). The method, then:
as §5, §6

T3 sequence (O60674 whole entry): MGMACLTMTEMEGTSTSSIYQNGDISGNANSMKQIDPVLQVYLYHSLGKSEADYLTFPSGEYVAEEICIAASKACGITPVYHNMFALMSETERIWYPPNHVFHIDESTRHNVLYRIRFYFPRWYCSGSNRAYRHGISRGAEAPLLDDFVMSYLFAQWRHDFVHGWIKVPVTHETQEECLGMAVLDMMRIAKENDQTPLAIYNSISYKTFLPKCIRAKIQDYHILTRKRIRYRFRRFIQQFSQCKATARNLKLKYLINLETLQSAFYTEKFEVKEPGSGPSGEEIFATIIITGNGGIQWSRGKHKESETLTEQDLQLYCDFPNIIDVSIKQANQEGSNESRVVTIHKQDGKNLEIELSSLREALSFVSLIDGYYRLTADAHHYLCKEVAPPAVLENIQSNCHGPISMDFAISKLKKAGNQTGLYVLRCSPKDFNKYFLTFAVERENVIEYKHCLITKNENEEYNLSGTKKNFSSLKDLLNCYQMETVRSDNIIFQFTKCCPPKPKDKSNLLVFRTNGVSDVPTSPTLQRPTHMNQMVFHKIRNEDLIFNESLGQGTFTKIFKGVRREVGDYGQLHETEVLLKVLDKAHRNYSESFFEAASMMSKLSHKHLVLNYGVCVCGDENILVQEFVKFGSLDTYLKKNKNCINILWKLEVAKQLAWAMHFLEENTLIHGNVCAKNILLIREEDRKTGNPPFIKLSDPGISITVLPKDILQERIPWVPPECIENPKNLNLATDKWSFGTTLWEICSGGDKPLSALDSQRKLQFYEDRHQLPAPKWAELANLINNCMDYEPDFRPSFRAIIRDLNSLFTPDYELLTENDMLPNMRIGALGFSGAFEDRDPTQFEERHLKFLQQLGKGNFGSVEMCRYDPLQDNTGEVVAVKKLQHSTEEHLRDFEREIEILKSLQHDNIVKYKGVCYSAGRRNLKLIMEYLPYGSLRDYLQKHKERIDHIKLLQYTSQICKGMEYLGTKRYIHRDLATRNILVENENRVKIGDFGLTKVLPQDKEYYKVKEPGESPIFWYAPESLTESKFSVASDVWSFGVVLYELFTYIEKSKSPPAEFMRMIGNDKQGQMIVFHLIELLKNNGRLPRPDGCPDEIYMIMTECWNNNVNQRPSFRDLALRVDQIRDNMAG
T2 sequence (P23458 whole entry): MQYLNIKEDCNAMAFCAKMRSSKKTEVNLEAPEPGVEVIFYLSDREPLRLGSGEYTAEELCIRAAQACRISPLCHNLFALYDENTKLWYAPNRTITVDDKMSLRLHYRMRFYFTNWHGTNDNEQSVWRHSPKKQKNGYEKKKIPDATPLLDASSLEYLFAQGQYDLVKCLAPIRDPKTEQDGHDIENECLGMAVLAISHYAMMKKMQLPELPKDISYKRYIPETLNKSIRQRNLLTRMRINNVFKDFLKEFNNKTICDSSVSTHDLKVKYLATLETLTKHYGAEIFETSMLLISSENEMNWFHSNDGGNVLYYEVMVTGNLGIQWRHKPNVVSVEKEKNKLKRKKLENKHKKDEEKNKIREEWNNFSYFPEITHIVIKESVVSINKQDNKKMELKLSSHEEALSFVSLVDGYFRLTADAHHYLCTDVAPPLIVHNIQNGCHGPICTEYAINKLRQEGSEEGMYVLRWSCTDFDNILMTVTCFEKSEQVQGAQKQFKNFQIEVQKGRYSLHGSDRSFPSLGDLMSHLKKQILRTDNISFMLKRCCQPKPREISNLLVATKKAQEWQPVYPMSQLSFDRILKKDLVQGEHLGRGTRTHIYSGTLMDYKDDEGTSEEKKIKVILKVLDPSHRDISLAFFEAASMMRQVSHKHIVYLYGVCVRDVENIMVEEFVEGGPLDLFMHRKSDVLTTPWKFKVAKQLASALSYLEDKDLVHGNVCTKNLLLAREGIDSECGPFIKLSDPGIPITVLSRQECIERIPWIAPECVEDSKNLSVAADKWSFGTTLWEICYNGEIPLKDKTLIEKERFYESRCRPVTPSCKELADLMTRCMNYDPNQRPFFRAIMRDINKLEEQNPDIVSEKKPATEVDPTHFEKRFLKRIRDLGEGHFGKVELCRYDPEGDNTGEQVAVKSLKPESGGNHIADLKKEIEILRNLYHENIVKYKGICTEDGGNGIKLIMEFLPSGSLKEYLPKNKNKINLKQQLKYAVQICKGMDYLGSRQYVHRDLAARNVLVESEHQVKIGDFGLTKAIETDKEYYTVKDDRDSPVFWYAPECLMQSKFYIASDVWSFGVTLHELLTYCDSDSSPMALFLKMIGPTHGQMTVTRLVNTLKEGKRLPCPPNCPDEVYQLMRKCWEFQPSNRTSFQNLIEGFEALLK

By IC50 is commonly meant the concentration that inhibits the measured activity by half. `CCC(C(=O)Nc1nccc2c(-c3nc(Nc4cn(C)nc4OC)ncc3F)c[nH]c12)N1CCN(C)CC1` (stereo not drawn) [Example 17, N-(3-(5-Fluoro-2-((3-methoxy-1-methyl-1H-pyrazol-4-yl)amino)pyrimidin-4-yl)-1H-pyrrole[2,3-c]pyridin-7-yl)-2-(4-methylpiperazin-1-yl)butanamide]: the IC50 in experiment [1] is less than 0.5 µM; in experiment [2], less than 0.005 µM; in experiment [3], 0.1 to 10 µM.

For `CCC(C(=O)Nc1nccc2c(-c3nc(Nc4cn(C)nc4OC)ncc3C)c[nH]c12)N1CC(C)N(C)C(C)C1` (stereo not drawn) [Example 10], the IC50 in experiment [1] is 0.5 to 10 µM; in experiment [2], 0.005 to 0.05 µM; in experiment [3], 0.1 to 10 µM; in experiment [4], greater than 1 µM; in experiment [5], greater than 20 µM.

For the compound `Cc1cnc(Nc2cccc(S(C)(=O)=O)c2F)nc1-c1c[nH]c2c(NC(=O)NC(C)C)nccc12` [Example 30, 1-(3-(2-((2-Fluoro-3-(methylsulfonyl)phenyl)amino)-5-methylpyrimidin-4-yl)-1H-pyrrolo[2,3-c]pyridin-7-yl)-3-isopropylurea], the IC50 in experiment [1] is less than 0.5 µM; in experiment [2], 0.005 to 0.05 µM; in experiment [3], 0.1 to 10 µM; in experiment [4] it was less than 0.1 µM; in experiment [5], 10 to 20 µM.

Take `Cc1cnc(Nc2cccc(S(C)(=O)=O)c2F)nc1-c1c[nH]c2c(NC(=O)NC(C)C)ncnc12` [Example 33]: the IC50 in experiment [1] was less than 0.5 µM; in experiment [2], 0.005 to 0.05 µM; in experiment [3], 0.1 to 10 µM; in experiment [4], greater than 1 µM; in experiment [5], greater than 20 µM.

As for `COc1nn(C)cc1Nc1nccc(-c2c[nH]c3c(NC(=O)[C@@H](C)N4CCN(C)CC4)nccc23)n1` [Example 1, (R)—N-(3-(2-((3-Methoxy-1-methyl-1H-pyrazol-4-yl)amino)pyrimidin-4-yl)-1H-pyrrolo[2,3-c]pyridin-7-yl)-2-(4-methylpiperazin-1-yl)propionamide], the concentration for half-maximal inhibition (IC50) is 0.5 to 10 µM in experiment [1], greater than 0.05 µM in experiment [2] and 0.1 to 10 µM in experiment [3].

On to `COc1nn(C)cc1Nc1ncc(C)c(-c2c[nH]c3c(NC(=O)C(C(C)C)N4CCN(C)CC4)nccc23)n1` (stereo not drawn) [Example 6], for which the IC50 in experiment [1] is less than 0.5 µM; in experiment [2] it was 0.005 to 0.05 µM; in experiment [3], less than 0.1 µM; in experiment [4] it was 0.1 to 1 µM; in experiment [5] it was less than 10 µM.

As to `CC[C@@H](C(=O)Nc1nccc2c(-c3nc(Nc4cccc(S(C)(=O)=O)c4F)ncc3C)c[nH]c12)N1CC2CCC(C1)N2C` [Example 26, (S)—N-(3-(2-((2-Fluoro-3-(methylsulfonyl)phenyl)amino)-5-methylpyrimidin-4-yl)-1H-pyrrolo[2,3-c]pyridin-7-yl)-2-(8-methyl-3,8-diazabicyclo[3.2.1]octane-3-yl)butanamide], the IC50 in experiment [1] was 0.5 to 10 µM; in experiment [2], greater than 0.05 µM; in experiment [3], 0.1 to 10 µM.

With `CCC(C(=O)Nc1nccc2c(-c3nc(Nc4cn(C)nc4OC)ncc3C)c[nH]c12)N1CCC(N(C)C)CC1` (stereo not drawn) [Example 9], the IC50 in experiment [1] is less than 0.5 µM; in experiment [2] it was 0.005 to 0.05 µM; in experiment [3], less than 0.1 µM; in experiment [4], 0.1 to 1 µM; in experiment [5], less than 10 µM.

In the case of `CCC(C(=O)Nc1nccc2c(-c3nc(Nc4cccc(NS(C)(=O)=O)c4F)ncc3C)c[nH]c12)N1CCN(C)CC1` (stereo not drawn) [Example 22, N-(3-(2-((2-Fluoro-3-(methylsulfonylamino)phenyl)amino)-5-methylpyrimidin-4-yl)-1H-pyrrolo[2,3-c]pyridin-7-yl)-2-(4-methylpiperazin-1-yl)butanamide], the IC50 in experiment [1] was 0.5 to 10 µM; in experiment [2] it was 0.005 to 0.05 µM; in experiment [3] it was less than 0.1 µM; in experiment [4], 0.1 to 1 µM; in experiment [5], less than 10 µM.

For the compound `CCC(C(=O)Nc1nccc2c(-c3nc(Nc4cn(C)nc4OC)ncc3C)c[nH]c12)N1CCN(C2COC2)CC1` (stereo not drawn) [Example 18, N-(3-(2-((3-Methoxy-1-methyl-1H-pyrazol-4-yl)amino)-5-methylpyrimidin-4-yl)-1H-pyrrolo[2,3-c]pyridin-7-yl)-2-(4-(oxbutan-3-yl)piperazin-1-yl)butanamide], the values for the IC50 in experiment [1], in experiment [2] and in experiment [3] were less than 0.5 µM, less than 0.005 µM and 0.1 to 10 µM, respectively.

As for `COc1nn(C)cc1Nc1ncc(C)c(-c2c[nH]c3c(NC(=O)C(C)(C)N4CCN(C)CC4)nccc23)n1` [Example 11], the results for the IC50 in experiment [1], in experiment [2] and in experiment [3] were 0.5 to 10 µM, 0.005 to 0.05 µM and 0.1 to 10 µM, respectively.

Turning to `CCC(C(=O)Nc1ncnc2c(-c3nc(Nc4cccc(S(C)(=O)=O)c4F)ncc3C)c[nH]c12)N1CCN(C)CC1` (stereo not drawn) [Example 29, N-(7-(2-((2-Fluoro-3-(methylsulfonyl)phenyl)amino)-5-methylpyrimidin-4-yl)-5H-pyrrolo[3,2-d]pyrimidin-4-yl)-2-(4-methylpiperazin-1-yl)butanamide], the IC50 in experiment [1] was 0.5 to 10 µM; in experiment [2], greater than 0.05 µM; in experiment [3], 0.1 to 10 µM.

Consider `CCC(C(=O)Nc1nccc2c(-c3nc(Nc4cccc(S(C)(=O)=O)c4F)ncc3C)c[nH]c12)N1CCN(C)CC1` (stereo in doubt) [Example 20, (S)—N-(3-(2-((2-Fluoro-3-(methylsulfonyl)phenyl)amino)-5-methylpyrimidin-4-yl)-1H-pyrrolo[2,3-c]pyridin-7-yl)-2-(4-methylpiperazin-1-yl)butanamide], for which the IC50 is 0.5 to 10 µM in experiment [1], 0.005 to 0.05 µM in experiment [2] and 0.1 to 10 µM in experiment [3].
